Source: patent publication US8680091B2, “6-arylalkylamino-2,3,4,5-tetrahydro-1H-benzo[d]azepines as 5-HT2C receptor agonists” (Eli Lilly and Company, priority 2005, dated 2014)

Tests used:
male NIH Swiss mice [1] = assay: Marble burying assay (with rotorod); type: in vivo, mouse; conditions: marbles buried in 30 min, rotorod for motor impairment
Excerpt: Marble burying in mice has been used to model anxiety disorders including obsessive-compulsive disorders (OCD) due to ethological study of the behavior (e.g. Gyertyan I. “Analysis of the marble burying response: Marbles serve to measure digging rather than evoke burying”, Behavioural Pharmacology 6: 24-31, (1995)) and due to the pharmacological effects of clinical standards (c.f., Njung'E K. Handley S L. “Evaluation of marble-burying behavior as a model of anxiety”, Pharmacology, Biochemistry & Behavior. 38: 63-67, (1991)); Borsini F., Podhorna J., and Marazziti, D. “Do animal models of anxiety predict anxiolytic effects of antidepressants?”, Psychopharmacology 163: 121-141, (2002)).
House experimentally-naïve male, NIH Swiss mice (Harlan Sprague-Dawley, Indianapolis, Ind.) weighing between 28-35 g in groups of 12 for at least three days prior to testing in a vivarium with 12 h light and dark cycles. Conduct experiments during the light cycle in a dimly lit experimental testing room. Dose mice with vehicle or test compound and, after a specified pretreatment interval (generally 30 min.), place each mouse individually on a rotorod (Ugo Basile 7650) operating at a speed of 6 revolutions/min. and observe for falling. […]
Clinically effective standard compounds suppress marble burying at doses that are devoid of motor-impairing effects as measured on the rotorod. […]

Wistar rats [2] = conditions: clinically effective OCD treatment standard compounds; cited from earlier work
male NIH Swiss mice [3] = conditions: compounds used to treat OCD, literature; cited from earlier work
male NIH Swiss mice [4] = assay: Nestlet shredding; type: in vivo, mouse; conditions: 30 min, rotorod for motor impairment
Excerpt: Mice naturally will construct nests of material available in their living environment. Since this behavior is obsessive in nature, it has been used to model OCD (Xia Li, Denise Morrow and Jeffrey M. Witkin, “Decreases in nestlet shredding of mice by serotonin uptake inhibitors: comparison with marble burying”, Psychopharmacology, submitted Jul. 14, 2003). House experimentally-naïve male, NIH Swiss mice (Harlan Sprague-Dawley, Indianapolis, Ind.) weighing between 28-35 g in groups of 12 for at least three days prior to testing in a vivarium with a 12 h light/dark cycle. Conduct experiments during the light cycle in an experimental room with normal overhead fluorescent lighting. Dose mice with vehicle or test compound and after a specified pretreatment interval (generally 30 min.), place the mice individually in a 17×28×12 cm high plastic tub with about 5 mm sawdust shavings on the floor along with a pre-weighed multi-ply gauze pad (51 mm square). After 30 min., weigh the remainder of the gauze pad not removed by the mouse. Determine the weight of the gauze used for nestlet construction by subtraction. Compare the results for test compound treated mice to the results for vehicle control treated mice with Dunnett's test.
Clinically effective OCD treatment standard compounds suppress nestlet shredding at doses that are devoid of motor-impairing effects as measured by the rotorod test. […]

Wistar rats [5] = assay: Schedule-induced polydipsia; type: in vivo, rat
Excerpt: Schedule-Induced Polydipsia
Food-deprived rats exposed to intermittent presentations of food will drink amounts of water that are far in excess of their normal daily intake and in excess of their intake when given all of their food at one time (Falk J L. “Production of polydipsia in normal rats by an intermittent food schedule”, Science 133: 195-196, (1961)). This excessive behavior is persistent and has been used to model OCD.
Maintain Wistar rats on a food restricted diet (to maintain 85% free feeding weight), but with free access to water. Train the rats in a behavioral testing chamber to press a lever to receive a food pellet under a fixed interval schedule, such that the rats are rewarded with a 45 mg food pellet the first time they press a lever after a 120 second interval has elapsed. The fixed interval is then reset to 120 seconds and the process repeated. Thus, during a 90 min. test session, the rats can earn a maximum of 45 pellets. The behavioral chamber is also equipped with a water bottle that is weighed before and after the session to determine the amount of water consumed.
Administer test compounds on Tuesdays and Fridays. […] Compare the rates of lever pressing and water consumption for each animal's performance during sessions after test compound treatment with that animal's performance during control sessions, expressed as a percent of the control rate. […]

CN(C)CCCN1c2ccccc2Sc2ccc(Cl)cc21 [chlorpromazine]
Marble burying (male NIH Swiss mice [1]): decrease marble burying only at doses that also disrupt rotorod performance

CN(C)CCCN1c2ccccc2CCc2ccc(Cl)cc21 [chlomipramine]
Schedule-induced polydipsia (clinical standards) (Wistar rats [2]): suppress schedule-induced polydipsia without producing notable changes in motor patterns, food intake, or behavior the following day

CNCCC(Oc1ccc(C(F)(F)F)cc1)c1ccccc1 (stereo not shown) [fluoxetine]
Schedule-induced polydipsia (clinical standards) (Wistar rats [2]): suppress schedule-induced polydipsia without producing notable changes in motor patterns, food intake, or behavior the following day
Marble burying (clinical standards) (male NIH Swiss mice [3]): decrease burying

C[C@H](N)Cc1ccccc1 [d-amphetamine]
Nestlet shredding (male NIH Swiss mice [4]): decreases nestlet shredding only at doses that produce motoric side effects
Effect on schedule-induced polydipsia with co-administered 5-HT2C antagonist (Wistar rats [5]; co-administration of the 5-HT2C receptor antagonist): not prevented by the 5HT2C receptor antagonist
Schedule-induced polydipsia (water consumption) (Wistar rats [5]; food-restricted rats, 90 min session): decreases excessive drinking only at behaviorally stimulating doses
